We go through 1 compound from ChEMBL document CHEMBL5634091, “Cantharidin analogue alleviates dextran sulfate sodium-induced colitis in mice by inhibiting the activation of NF-κB signaling” (Eur J Med Chem, 2023).

For data set [1], the system named is DLD-1. Kind of data set: Inhibition of TNF-alpha induced activation of MAPK signaling pathway in human DLD-1 cells assessed as change in phosphorylated p38 level at 6.25 to 50 uM preincubated for 4 hrs and followed TNF-alpha stimulation and measured after 10 mins by Western blot analysis. In kind it is cell-based. The conditions noted are these: dose 6.25-50 µM, time 250.0 min. (In general: A western blot detects proteins with antibodies after separation by electrophoresis.)

The nature of data set [2]: Toxicity in Kunming mouse assessed as number of mouse survived at 400 mg/kg, po measured for 15 days. In kind it is organism-based. The following applies: in vivo, 360 h, time 15 day.
Data set [3] deals with T1, NF-kappa-B inhibitor alpha (Homo sapiens) (UniProt P25963).
T1 sequence (whole entry): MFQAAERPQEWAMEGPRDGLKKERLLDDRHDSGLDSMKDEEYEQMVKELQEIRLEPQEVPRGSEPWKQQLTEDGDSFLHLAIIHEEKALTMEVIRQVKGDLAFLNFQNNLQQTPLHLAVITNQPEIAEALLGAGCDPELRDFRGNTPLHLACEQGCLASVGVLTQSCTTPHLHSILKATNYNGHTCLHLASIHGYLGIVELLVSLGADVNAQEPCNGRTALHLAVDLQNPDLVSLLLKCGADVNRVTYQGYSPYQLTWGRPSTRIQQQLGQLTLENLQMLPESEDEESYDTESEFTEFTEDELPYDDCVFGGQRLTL
The data set is described as follows: Inhibition of proteasomal degradation of IkappaBalpha in TNF-alpha induced human HCT-116 cells assessed as increase in IkappaBalpha protein expression at 12.5 to 50 uM preincubated for 4 hrs and followed TNF-alpha stimulation and measured after 10 mins by Western blot analysis. Type of data set: cell-based. The following applies: dose 12.5-50 µM, time 250.0 min.

For data set [4], the system named is HCT-116. Kind of data set: Inhibition of TNF-alpha-induced NF-kappaB nuclear translocation in human HCT-116 cells preincubated for 4 hrs followed by TNF-alpha stimulation and measured after 30 mins by immunofluorescence staining based laser scanning confocal microscopic analysis. Type of data set: cell-based. The conditions noted are these: dose 25-50 µM, time 4.5 hrs.

Data set [5] in a line: Toxicity in C57BL/6 mouse model of DSS-induced acute ulcerative colitis assessed as effect on stomach at 100 to 300 mg/kg, po administered once a day for 7 days by H and E staining based analysis. Type of data set: organism-based. The following applies: in vivo, 168 h, dose 100-300 mg/kg, time 7 day.
Data set [6] concerns DLD-1. Kind of data set: Inhibition of TNF-alpha induced NF-kB activation in human DLD-1 cells assessed as decrease in phosphorylated IkappaBalpha protein expression preincubated for 4 hrs and followed TNF-alpha stimulation and measured after 10 mins by Western blot analysis. In kind it is cell-based. The following applies: dose 12.5-50 µM, time 250.0 min.
The test system of data set [7] is DLD-1. The data set is described as follows: Inhibition of TNF-alpha-induced NF-kappaB nuclear translocation in human DLD-1 cells preincubated for 4 hrs followed by TNF-alpha stimulation and measured after 30 mins by immunofluorescence staining based laser scanning confocal microscopic analysis. In kind it is cell-based. The conditions noted are these: dose 25-50 µM, time 4.5 hrs.

The subject of data set [8] is DLD-1. Kind of data set: Inhibition of TNF-alpha induced NF-kB activation in human DLD-1 cells assessed as decrease in phosphorylated IKK protein expression preincubated for 4 hrs and followed TNF-alpha stimulation and measured after 10 mins by Western blot analysis. In kind it is cell-based. The following applies: dose 12.5-50 µM, time 250.0 min.
In data set [9] the test system is DLD-1. The data set is described as follows: Inhibition of TNF-alpha induced NF-kB activation in human DLD-1 cells assessed as decrease in phosphorylated p65 protein expression preincubated for 4 hrs and followed TNF-alpha stimulation and measured after 10 mins by Western blot analysis. Type of data set: cell-based. The conditions noted are these: dose 12.5-50 µM, time 250.0 min.

For data set [10], the system named is Mus musculus. Kind of data set: Anti-inflammatory activity in po dosed C57BL/6 mouse model of DSS-induced acute ulcerative colitis assessed as reduction in CCL2 mRNA expression in colon administered once a day for 7 days by RT-PCR analysis. Type of data set: functional, organism-based. The conditions noted are these: dose 100-300 mg/kg, time 7.0 day.
Data set [11] can be described thus: Toxicity in C57BL/6 mouse model of DSS-induced acute ulcerative colitis assessed as effect on kidney tissue at 100 to 300 mg/kg, po administered once a day for 7 days by H and E staining based analysis. In kind it is organism-based. The conditions noted are these: in vivo, 168 h, dose 100-300 mg/kg, time 7 day.
Data set [12] relates to HCT-116. Kind of data set: Inhibition of TNF-alpha induced MAPK signaling pathway activation in human HCT-116 cells assessed as decrease in phospho-JNK protein expression at 6.25 uM preincubated for 4 hrs and followed TNF-alpha stimulation and measured after 10 mins by Western blot analysis. In kind it is cell-based. The conditions noted are these: time 250.0 min.
A short description of data set [13]: Toxicity in Kunming mouse assessed as increase in body weight at 400 mg/kg, po measured for 15 days (reference value: 12.38%). In kind it is organism-based. The following applies: in vivo, 360 h, time 15 day.
Data set [14] relates to Mus musculus. The data set is described as follows: Anti-inflammatory activity in po dosed C57BL/6 mouse model of DSS-induced acute ulcerative colitis assessed as reduction in IL-17A mRNA expression in colon administered once a day for 7 days by RT-PCR analysis. In kind it is functional, organism-based. The conditions noted are these: dose 100-300 mg/kg, time 7.0 day.
In data set [15] the test system is Mus musculus. Kind of data set: Anti-inflammatory activity in C57BL/6 mouse model of DSS-induced acute ulcerative colitis assessed as reduction in hyperemia at 100 to 300 mg/kg, po administered once a day for 7 days by H and E staining based analysis. The conditions noted are these: dose 100-300 mg/kg, time 7.0 day. Type of data set: functional, organism-based.

Data set [16] deals with HCT-116. Kind of data set: Inhibition of TNF-alpha induced activation of MAPK signaling pathway in human HCT-116 cells assessed as change in phosphorylated p38 level at 6.25 to 50 uM preincubated for 4 hrs and followed TNF-alpha stimulation and measured after 10 mins by Western blot analysis. Type of data set: cell-based. The following applies: dose 6.25-50 µM, time 250.0 min.

Calls of active or inactive are those of the source. The calls are words filed in the database; no cut-off is given here.

With `COC(=O)C1=C(C(=O)OC)C2OC1CC2C#Cc1ccc(C)cc1` (stereo unspecified), the inhibition entry in the data set on DLD-1 [1] and with HCT-116 [16] was “inactive” throughout. Besides, the Activity in [2] is 0; in [5] it was “Non-Toxic”; in the data set on Mus musculus [10], “Dose-Dependent Effect”; in [11], “Non-Toxic”; in data set [13], 13.21%; in the data set on Mus musculus [14], “Dose-Dependent Effect”. For the same compound, the inhibition entry (in data set [3]; in the data set with HCT-116 [12]) was “Active” in each case. Also, the inhibition entry in the data set with HCT-116 [4], in the data set on DLD-1 [6], in the data set with DLD-1 [7], in the data set with DLD-1 [8] and in the data set on DLD-1 [9] was “Dose-Dependent Effect” each time. Also, the result in the data set with Mus musculus [15] was Active.
